Measurements from US20240368133A1, “Compounds for the Treatment of Pain, in Particular, Neuropathic Pain, and/or Other Diseases or Disorders that are Associated with AT2R and/or AT2R Mediated Signaling” (Confo Therapeutics N.V., priority 2021, published 2024).

What was measured:
Format in all cases: in vitro ADME
[1] = Caco-2 permeability assay; conditions: human; for recovery at 90 min, 10 µM / efflux ratio at 90 min, 10 µM: Caco-2, pH 7.4; for Papp A→B at 90 min, 10 µM: pH 7.4, Caco-2, AB
Experimental: Caco-2 cells were cultured in 75 cm^2 flasks to 80-90% confluence according to the ATCC and Millipore recommendations (Arena A. et al., 2003) in humidified atmosphere at 37° C. and 5% CO2. Cells were detached with Trypsin/EDTA solution and resuspended in the cell culture medium to a final concentration of 2×10^5 cells/ml. 500 μl of the cell suspension was added to each well of HTS 24-Multiwell Insert System and 1000 μl of prewarmed complete medium was added to each well of the feeder-plate. Caco-2 cells were incubated in Multiwell Insert System for 21 days before the transport experiments. The medium in filter plate and feeder tray was refreshed every other day. After 21 days of the cell growth, the integrity of the monolayer was verified by measuring the transepithelial electrical resistance (TEER) for every well using the Millicell-ERS system ohm meter. The final TEER values were within the range 150-600 Ω×cm^2 (Srinivasan B. et al., 2015) as required for the assay conditions. 24-well insert plate was removed from its feeder plate and placed in a new sterile 24-well transport analysis plate. The inserts were washed with PBS after medium aspiration. To determine the rate of compounds transport in apical (A)-to-basolateral (B) direction, 300 μL of the test compound dissolved in transport buffer at 10 μM (HBSS, 25 mM HEPES, pH=7.4) was added into the filter wells; 1000 μL of buffer (HBSS, 25 mM HEPES, pH=7.4) was added to transport analysis plate wells. Propranolol, Atenolol, Quinidine and Digoxin were used as reference compounds. The plates were incubated for 90 min at 37° C. under continuous shaking at 50 rpm. 75 μL aliquots were taken from the donor and receiver compartments for LC-MS/MS analysis. All samples were mixed with 2 volumes of acetonitrile followed by protein sedimentation by centrifuging at 10000 rpm for 10 minutes. Supernatants were analyzed using the HPLC system coupled with tandem mass spectrometer. The apparent permeability (Papp) was calculated for Caco-2 permeability assay using the following equation:
• VA=volume of transport buffer in acceptor well • Area=surface area of the insert (equals to effective growth area of the insert −0.31 sq.cm) • Time=time of the assay • [drug]acc=concentration of test compound in acceptor well • [drug]initial,d=initial concentration of test compound in a donor well • Papp is expressed in 10^−6 cm/sec.
The % recovery can be useful in interpreting the Caco-2 data. If the recovery is very low, this may indicate poor solubility, binding of the compound to the test plate materials, metabolism by the Caco-2 cells, or accumulation of the compound in the cell monolayer. The % recovery was calculated using the following equation:
• Vacc=volume of compound solution in acceptor well […] • Vd=volume of compound solution in […] • Cacc=concentration of test compound in acceptor well (μM) • Cinitial,d=initial concentration of test compound in a donor well (μM)

[2] = Plasma protein binding (equilibrium dialysis), dog; conditions: for fraction unbound at 4 h, 5 µM: equilibrium dialysis, read-out: PPB (%), dog (converted); for recovery at 4 h, 5 µM: plasma (freshly thawed), PPB assay recovery
Experimental: Prior to the start of the experiment, dialysis membranes (membrane strips, MW cut-off 12-14 kDa, HTDialysis, Cat.NoJl 101) are soaked in deionized water for 60 min, transferred and left overnight in 20% EtOH. The day of experiment, a 10 mM stock solution of the compound in DMSO is diluted with a factor 10 in DMSO. This solution is further diluted in freshly thawed human, rat, mouse or dog plasma (BioIVT) with a final concentration of 5 μM and final DMSO concentration of 0.5%.
From this solution, an aliquot of 50 μL was taken and matrix matched with an equivalent volume of PBS for the recovery plate, after which 6 volumes of STOP solution were added to the recovery plate. For these recovery plates, no incubation is done.
Equilibrium Dialysis Device (96-well, model HTD96b, HTDialysis, Cat. No. #1006) is assembled according to manufacturer's instructions. Immediately after assembly, a volume of 100 μL of plasma (spiked with compound) is placed on one side of the well and another 100 μL of blank PBS buffer are added to the other side, respectively. Each compound is tested in duplicate. Acebutolol and Nicardipine are used as low and very high binding controls, except for the mouse, Caffeine is used as low binder instead Acebutolol. If the PPB values for these controls are not in the range determined by the historical data, the assay is not validated.
The plate is incubated for 4 h at 37° C. while shaking at 230 rpm. Thereafter, an aliquot of 50 μL is taken from each side of the well and matrix matched (mix of equal volumes of spiked plasma with blank PBS buffer and samples from buffer compartment with blank plasma). Matrix matched samples are further mixed with 3 volumes of STOP solution (acetonitrile/MeOH 2/1 with diclofenac as internal standard). After brief mixing and centrifugation (at 2400 rpm for 15 min, at +4° C.), the supernatant is filtered and transferred into new 96-well plates for analysis on LC-MS/MS (systems API4000).
The percentage of plasma protein bound compound and recovery were calculated using following equations:
with: • Cplasma=peak area of the compound in the plasma/peak area of the IS in the plasma • Cbuffer=peak area of the compound in the buffer/peak area of the IS in the buffer • ‘Concentration’ is the ratio between compound and IS peak areas
The recovery is a control, which allows to be sure that the compound has not a non-specific binding to the plates or is not stable in the plasma in these conditions:
with: • PBS=(ratio of the peak area of the compound/peak area of the IS) in the PBS compartment after 4 h • Plasma=(ratio of the peak area of the compound/peak area of IS) in the plasma compartment after 4 h • Recov=Recovery=ratio of the peak are of the compound I the well recovery/peak area of the IS in the well recovery at TO […]

[3] = Metabolic stability in hepatocytes, human; conditions: pooled cryopreserved hepatocytes, read-out: Human Clint (μL/min/10^6 cells)
[4] = Caco-2 permeability assay; conditions: human, pH 7.4; Caco-2, BA

Row | SMILES | recovery at 90 min, 10 µM [1] [%] | Papp A→B at 90 min, 10 µM [1] [×10⁻⁶ cm/s] | fraction unbound at 4 h, 5 µM [2] | recovery at 4 h, 5 µM [2] [%] | hepatocyte CLint at 1 µM [3] [µL/min/1e6 cells] | efflux ratio at 90 min, 10 µM [1] | Papp B→A at 90 min, 10 µM [4] [×10⁻⁶ cm/s]
1 | CC(C)Cc1cc(F)c(-c2nn[nH]n2)c(N2CCN(Cc3cccnn3)[C@@H](C)C2)c1 [Compound A-174, 3-[[(2S)-4-[3-fluoro-5-isobutyl-2-(2H-tetrazol-5-yl)phenyl]-2-methyl-piperazin-1-yl]methyl]pyridazine] | 90 | 0.15 | 0.062 | 97 | < 2.9 | 16 | 2.4
2 | CCC1CN(c2cc(CC(C)C)cc(F)c2-c2nn[nH]n2)CCN1Cc1cccnn1 (stereo not drawn) [Compound A-178, 3-[[2-ethyl-4-[3-fluoro-5-isobutyl-2-(2H-tetrazol-5-yl)phenyl]piperazin-1-yl]methyl]pyridazine] | 94 | 1.2 | – | – | – | 7.2 | 8.6
3 | CC(C)Cc1cc(F)c(-c2nn[nH]n2)c(N2CCN(Cc3ccccn3)[C@@H](C)C2)c1 [Compound A-217, (2S)-4-[3-fluoro-5-isobutyl-2-(2H-tetrazol-5-yl)phenyl]-2-methyl-1-(2-pyridylmethyl)piperazine] | – | – | 0.042 | 96 | 5.8 | – | –

More lines, main results first:

Row | recovery at 90 min, 10 µM [1] [%] | Papp A→B at 90 min, 10 µM [1] [×10⁻⁶ cm/s] | fraction unbound at 4 h, 5 µM [2] | recovery at 4 h, 5 µM [2] [%] | hepatocyte CLint at 1 µM [3] [µL/min/1e6 cells] | SMILES | efflux ratio at 90 min, 10 µM [1] | Papp B→A at 90 min, 10 µM [4] [×10⁻⁶ cm/s]
4 | 77 | 2.8 | – | – | – | CC(C)Cc1ccc(-c2nn[nH]n2)c(N2CCN(Cc3nc4ccccc4c(=O)[nH]3)CC2)c1 [Compound A-31, 2-[[4-[5-isobutyl-2-(2H-tetrazol-5-yl)phenyl]piperazin-1-yl]methyl]-3H-quinazolin-4-one] | – | –
5 | 91 | < 3.4 | – | – | – | CC(C)Cc1ccc(-c2nn[nH]n2)c(N2CCN(Cc3cccnn3)CC2)c1 [Compound A-90, 3-[[4-[5-isobutyl-2-(2H-tetrazol-5-yl)phenyl]piperazin-1-yl]methyl]pyridazine] | – | –
